*1 amine or outer side, *2 acyl side, *3 side chain or, on linkers, in order; H or OH if unused. Where a SMILES comes first, the peptide text is derived from it. Bridges are numbered along the chain shown (N, C = ends). Roman numbers before positions name the chains, in order. [ ]: non-standard residue; d: D form. Actinocin(9to1) = Cc1c2oc3c(C)ccc(C(=O)[*:1])c3nc-2c(C(=O)[*:2])c(N)c1=O; NMeV = CN[C@H](C(=O)O)C(C)C; Sar = CNCC(=O)O
Tested on: chronic lymphocytic leukemia (CLL) samples classified by expression subtype (Ec-i, EC-m1, EC-m2, EC-m3, EC-m4, EC-o, EC-u1, EC-u2)
Assay: Ex-vivo drug sensitivity (percent viability) of CLL samples compared between expression subtypes (ECs); on Mean viability in the EC: test concentration or dose not given here; on Mean viability in the other ECs: test concentration or dose not given here
Format: cell-based
Excerpt: An analysis was completed to determine whether the expression clusters (ECs) can be used to predict the resistance and sensitivity of different chronic lymphocytic leukemias to various drugs. […] The expression subtypes were then used with the drug sensitivity data to compare the percent […] of samples in each expression cluster to the percent viability of samples in all other expression clusters.

| Structure (SMILES) | Mean viability in the other ECs (all ECs other than EC-m3) | Mean viability in the other ECs (all ECs other than EC-m4) | Mean viability in the other ECs (all ECs other than EC-u1) | Drug response associated with the EC (expression cluster EC-m3) | Mean viability in the EC (expression cluster EC-m3) | Drug response associated with the EC (expression cluster EC-m4) | Mean viability in the EC (expression cluster EC-m4) | Drug response associated with the EC (expression cluster EC-u1) | Mean viability in the EC (expression cluster EC-u1) | Drug response associated with the EC (expression cluster EC-u2) | other results |
| --- | --- | --- | --- | --- | --- | --- | --- | --- | --- | --- | --- |
| CC(C)c1cc(C(=O)N2Cc3ccc(CN4CCN(C)CC4)cc3C2)c(O)cc1O [AT13387] | 0.72 | 0.70 | 0.75 | Resistant | 0.81 | Resistant | 0.81 | Sensitive | 0.68 | Sensitive | Mean viability in the other ECs (all ECs other than EC-m1): 0.72; Mean viability in the other ECs (all ECs other than EC-u2): 0.74; Drug response associated with the EC (expression cluster EC-m1): Resistant; Mean viability in the EC (expression cluster EC-m1): 0.82; Mean viability in the EC (expression cluster EC-u2): 0.50 |
| NC(=O)Nc1cc(-c2cccc(F)c2)sc1C(=O)N[C@H]1CCCNC1 [AZD7762] | 0.82 | 0.80 | 0.88 | Resistant | 0.95 | Resistant | 0.98 | Sensitive | 0.74 | Sensitive | Mean viability in the other ECs (all ECs other than EC-u2): 0.85; Mean viability in the EC (expression cluster EC-u2): 0.51 |
| CC(C)(C)c1ccc(S(=O)(=O)/C=C/C#N)cc1 [BAY 11-7085] |  |  |  |  |  |  |  | Sensitive |  |  | Drug response associated with the EC (expression cluster EC-i): Resistant |
| O=C(Nc1cccc(Nc2ncc(Br)c(NCCc3cnc[nH]3)n2)c1)N1CCCC1 [BX912] |  |  | 1.07 |  |  |  |  | Sensitive | 1.05 |  |  |
| COc1cc2nc(-c3cc(F)ccc3O)nc(N[C@@H]3CNC[C@H]3C(C)(C)O)c2cc1OC [CCT241533] | 1.06 |  |  | Resistant | 1.09 |  |  |  |  |  | Mean viability in the other ECs (all ECs other than EC-m1): 1.06; Drug response associated with the EC (expression cluster EC-m1): Resistant; Mean viability in the EC (expression cluster EC-m1): 1.11 |
| C[C@@H]1CN(CC(=O)Nc2ccc3c(c2)Cc2cccc(-c4cc(=O)cc(N5CCOCC5)o4)c2S3)C[C@H](C)O1 [KU-60019] | 0.97 |  |  | Resistant | 1.00 |  |  |  |  | Sensitive | Mean viability in the other ECs (all ECs other than EC-u2): 0.97; Mean viability in the EC (expression cluster EC-u2): 0.90 |
| O=C(Cc1ccc(-c2ccc(OCCN3CCOCC3)cc2)cn1)NCc1ccccc1 [KX2-391] |  |  | 0.91 |  |  |  |  | Sensitive | 0.86 |  |  |
| C=CCn1c(=O)c2cnc(Nc3ccc(N4CCN(C)CC4)cc3)nc2n1-c1cccc(C(C)(C)O)n1 [MK-1775] | 1.00 |  | 1.02 | Resistant | 1.04 |  |  | Sensitive | 0.98 |  |  |
| NC1(c2ccc(-c3nc4ccn5c(=O)[nH]nc5c4cc3-c3ccccc3)cc2)CCC1 [MK-2206] |  | 1.00 | 1.02 |  |  | Resistant | 1.04 | Sensitive | 0.98 |  | Mean viability in the other ECs (all ECs other than EC-m1): 1.00; Drug response associated with the EC (expression cluster EC-m1): Resistant; Mean viability in the EC (expression cluster EC-m1): 1.07 |
| O=c1cc(N2CCOCC2)oc2c(-c3cccc4c3sc3ccccc34)cccc12 [NU7441] |  |  |  |  |  | Resistant |  |  |  | Sensitive |  |
| Cn1cc(-c2[nH]c3cc(NC(=O)[C@H](N)C4CCCCC4)cc4c3c2C=NNC4=O)cn1 [PF 477736] |  |  |  | Resistant |  | Resistant |  | Sensitive |  |  | Drug response associated with the EC (expression cluster EC-m1): Resistant |
| Cl.NC(=O)c1cnc(N[C@@H]2CCCC[C@@H]2N)nc1Nc1cccc(-n2nccn2)c1 [PRT062607 HCl] |  |  |  | Resistant |  | Resistant |  | Sensitive |  | Sensitive | Drug response associated with the EC (expression cluster EC-i): Resistant |
| CN1CCC(CNc2ccc3ncc(-c4cccc(OC(F)(F)F)c4)n3n2)CC1 [SGI-1776] |  |  | 1.04 |  |  |  |  | Sensitive | 1.01 |  | Mean viability in the other ECs (all ECs other than EC-m1): 1.03; Drug response associated with the EC (expression cluster EC-m1): Resistant; Mean viability in the EC (expression cluster EC-m1): 1.09 |
| CC(C)(C)c1cnc(CSc2cnc(NC(=O)C3CCNCC3)s2)o1 [SNS-032] |  | 0.73 |  |  |  | Sensitive | 0.66 |  |  |  |  |
| COc1cc(N2CCC(N3CCN(C)CC3)CC2)ccc1Nc1ncc(Cl)c(Nc2ccccc2S(=O)(=O)C(C)C)n1 [TAE684] |  | 1.01 | 1.03 |  |  | Resistant | 1.04 | Sensitive | 0.98 |  | Mean viability in the other ECs (all ECs other than EC-m1): 1.01; Drug response associated with the EC (expression cluster EC-m1): Resistant; Mean viability in the EC (expression cluster EC-m1): 1.07 |
| COCCn1c2c([n+](Cc3cnccn3)c1C)C(=O)c1ccccc1C2=O [YM155] |  |  | 0.64 |  |  |  |  | Sensitive | 0.53 |  |  |
| Cc1c2oc3c(C)ccc(C(=O)N[C@@H]4C(=O)N[C@H](C(C)C)C(=O)N5CCC[C@H]5C(=O)N(C)CC(=O)N(C)[C@@H](C(C)C)C(=O)O[C@@H]4C)c3nc-2c(C(=O)N[C@@H]2C(=O)N[C@H](C(C)C)C(=O)N3CCC[C@H]3C(=O)N(C)CC(=O)N(C)[C@@H](C(C)C)C(=O)O[C@@H]2C)c(N)c1=O [actinomycin D] (I: T[dV]P[Sar][NMeV] / II: T[dV]P[Sar][NMeV]; ester I:1-I:C, II:1-II:C; linker I:N-II:N via Actinocin(9to1)) |  |  | 0.27 |  |  |  |  | Resistant | 0.37 |  |  |
| CN(C)C/C=C/C(=O)Nc1cc2c(Nc3ccc(F)c(Cl)c3)ncnc2cc1O[C@H]1CCOC1 [afatinib] | 1.08 | 1.09 |  |  | 1.03 |  | 1.02 |  |  |  |  |
| CC[C@H]1CN2CCc3cc(OC)c(OC)cc3[C@@H]2C[C@@H]1C[C@H]1NCCc2cc(O)c(OC)cc21 [cephaeline] |  |  |  |  |  |  |  |  |  |  | Mean viability in the other ECs (all ECs other than EC-u2): 0.82; Mean viability in the EC (expression cluster EC-u2): 0.72 |
| C/C1=C\[C@@H](C)C/C=C/[C@H]2[C@@H]3O[C@]3(C)[C@@H](C)[C@H]3[C@H](Cc4c[nH]c5ccccc45)NC(=O)[C@]32C(=O)/C=C/C(=O)[C@@H]1O [chaetoglobosin A] | 1.07 |  |  | Sensitive | 0.98 |  |  |  |  |  |  |
| C[C@H](Nc1ncnc2[nH]cnc12)c1cc2cccc(Cl)c2c(=O)n1-c1ccccc1 [duvelisib] | 0.88 | 0.87 | 0.90 | Resistant | 0.95 | Resistant | 0.94 | Sensitive | 0.85 | Sensitive | Mean viability in the other ECs (all ECs other than EC-u2): 0.89; Mean viability in the EC (expression cluster EC-u2): 0.73 |
| CO[C@H]1C[C@@H]2CC[C@@H](C)[C@@](O)(O2)C(=O)C(=O)N2CCCC[C@H]2C(=O)O[C@H]([C@H](C)C[C@@H]2CC[C@@H](OCCO)[C@H](OC)C2)CC(=O)[C@H](C)/C=C(\C)[C@@H](O)[C@@H](OC)C(=O)[C@H](C)C[C@H](C)/C=C/C=C/C=C/1C [everolimus] |  |  | 0.95 |  |  |  |  | Resistant | 0.99 |  |  |
| CC[C@H](Nc1ncnc2nc[nH]c12)c1nc2cccc(F)c2c(=O)n1-c1ccccc1 [idelalisib] | 0.93 | 0.93 | 0.96 | Resistant | 1.02 | Resistant | 0.99 | Sensitive | 0.90 | Sensitive | Mean viability in the other ECs (all ECs other than EC-u2): 0.95; Mean viability in the EC (expression cluster EC-u2): 0.79 |
| CC1(C)CCC(c2ccc(Cl)cc2)=C(CN2CCN(c3ccc(C(=O)NS(=O)(=O)c4ccc(N[C@H](CCN5CCOCC5)CSc5ccccc5)c(S(=O)(=O)C(F)(F)F)c4)cc3)CC2)C1 [navitoclax] |  |  | 0.82 |  |  |  |  | Resistant | 0.89 |  |  |
| C=C(C)[C@H]1Cc2c(ccc3c2O[C@@H]2COc4cc(OC)c(OC)cc4[C@@H]2C3=O)O1 [rotenone] |  | 0.77 |  |  |  | Sensitive | 0.67 |  |  | Resistant | Mean viability in the other ECs (all ECs other than EC-i): 0.77; Mean viability in the other ECs (all ECs other than EC-u2): 0.74; Drug response associated with the EC (expression cluster EC-i): Sensitive; Mean viability in the EC (expression cluster EC-i): 0.63; Mean viability in the EC (expression cluster EC-u2): 0.92 |
| CN1CCN(CCOc2cc(OC3CCOCC3)c3c(Nc4c(Cl)ccc5c4OCO5)ncnc3c2)CC1 [saracatinib] |  |  |  |  |  |  |  |  |  |  | Mean viability in the other ECs (all ECs other than EC-i): 1.07; Mean viability in the EC (expression cluster EC-i): 1.13 |
